Measured values: PubChem BioAssay AID1259411 (Chemical Carcinogenesis Research Information System (CCRIS), 2018)
Calls of active or inactive are those of the source. No rule for the calls is given here.

System: rodent carcinogenicity bioassays, tumor incidence
Assay: CCRIS carcinogenicity studies
Method in brief: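 Archive of carcinogenicity, mutagenicity, tumor promotion and tumor inhibition results drawn from journals, NCI reports and other sources, expert-reviewed; covers 1985-2011 and is no longer updated.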

C=CCN(CC=C)N=O
carcinogen call (Species: RAT, Strain/Sex: BDIX/FEMALE, Route: ORAL, Dose: 0, 20, 40, 80 MG/KG IN DRINKING WATER FOR DURATION OF STUDY (STUDY DURATION: LIFE TIME), Dose: 0, 20, 40, 80 MG/KG IN DRINKING WATER FOR DURATION OF STUDY (STUDY DURATION: LIFE TIME), Tumor Site: Type of Lesion: NASAL/PARANASAL CAVITY: TUMORS): active; positive
carcinogen call (Species: RAT, Strain/Sex: BDIX/MALE, Route: ORAL, Dose: 0, 20, 40, 80 MG/KG IN DRINKING WATER FOR DURATION OF STUDY (STUDY DURATION: LIFE TIME), Dose: 0, 20, 40, 80 MG/KG IN DRINKING WATER FOR DURATION OF STUDY (STUDY DURATION: LIFE TIME), Tumor Site: Type of Lesion: NASAL/PARANASAL CAVITY: TUMORS): active; positive

C[C@]12CC[C@H]3C(=CCc4cc(OS(=O)(=O)O)ccc43)[C@@H]1CCC2=O
carcinogen call (Species: HAMSTER, Strain/Sex: SYRIAN/MALE, Route: SUBCUTANEOUS IMPLANT, Dose: 0, 20 MG IN PELLETS IMPLANTED EVERY 2.5 MO FOR 9 MO (STUDY DURATION: 9 MO), Tumor Site: Type of Lesion: KIDNEY: TUMOR): active; positive

C#CCN1CC(=O)N(COC(=O)C2C(C=C(C)C)C2(C)C)C1=O (configuration not stated)
carcinogen call (Species: Mouse, Strain/Sex: Crj:CD-1 (ICR)/Female (51/Group), Route: Oral, Dose: 0, 100, 3500, 7000 ppm of 92.9% imiprothrin in diet for 78 wk, study duration 78 wk, Dose: 0, 100, 3500, 7000 ppm of 92.9% imiprothrin in diet for 78 wk, study duration 78 wk): inactive; negative
carcinogen call (Species: Mouse, Strain/Sex: Crj:CD-1 (ICR)/Male (51/Group), Route: Oral, Dose: 0, 100, 3500, 7000 ppm of 92.9% imiprothrin in diet for 78 wk, study duration 78 wk, Dose: 0, 100, 3500, 7000 ppm of 92.9% imiprothrin in diet for 78 wk, study duration 78 wk): inactive; negative
carcinogen call (Species: Rat, Strain/Sex: Sprague-Dawley/Female (50/Group), Route: Oral, Dose: 0, 50, 250, 2500, 5000 ppm of 92.9% imiprothrin in diet for 104 wk, study duration 104 wk, Dose: 0, 50, 250, 2500, 5000 ppm of 92.9% imiprothrin in diet for 104 wk, study duration 104 wk): inactive; negative
carcinogen call (Species: Rat, Strain/Sex: Sprague-Dawley/Male (50/Group), Route: Oral, Dose: 0, 50, 250, 2500, 5000 ppm of 92.9% imiprothrin in diet for 104 wk, study duration 104 wk, Dose: 0, 50, 250, 2500, 5000 ppm of 92.9% imiprothrin in diet for 104 wk, study duration 104 wk): inactive; negative

O=C1NCCN1/N=C/c1ccc([N+](=O)[O-])o1
carcinogen call (Species: RAT, Route: ORAL, Tumor Site: Type of Lesion: LYMPHATIC SYSTEM: LYMPHOBLASTIC LYMPHOMA, MAMMARY GLAND): active; positive

COc1nn(CSP(=S)(OC)OC)c(=O)s1
carcinogen call (Species: DOG, Strain/Sex: BEAGLE/FEMALE, Route: ORAL, Dose: 0, 0.5, 2, 4, 40, 140 PPM IN DIET FOR 1 YR (STUDY DURATION: 1 YR), Dose: 0, 0.5, 2, 4, 40, 140 PPM IN DIET FOR 1 YR (STUDY DURATION: 1 YR)): inactive; negative
carcinogen call (Species: DOG, Strain/Sex: BEAGLE/MALE, Route: ORAL, Dose: 0, 0.5, 2, 4, 40, 140 PPM IN DIET FOR 1 YR (STUDY DURATION: 1 YR), Dose: 0, 0.5, 2, 4, 40, 140 PPM IN DIET FOR 1 YR (STUDY DURATION: 1 YR)): inactive; negative

CN(CC(=O)O)N=O
carcinogen call (Species: MOUSE, Route: INTRAPERITONEAL, Tumor Site: Type of Lesion: LIVER): active; positive
carcinogen call (Species: MOUSE, Route: ORAL, Tumor Site: Type of Lesion: NASAL CAVITY): active; positive
carcinogen call (Species: RAT, Route: ORAL, Tumor Site: Type of Lesion: ESOPHAGUS): active; positive

O=C1O[C@H]([C@H](O)CO)C(O)=C1O
carcinogen call (Species: MOUSE, Strain/Sex: B6C3F1/FEMALE, Route: ORAL, Dose: 0, 2.5, 5% IN DRINKING WATER FOR 96 WK (STUDY DURATION: 110 WK), Dose: 0, 2.5, 5% IN DRINKING WATER FOR 96 WK (STUDY DURATION: 110 WK)): inactive; negative
carcinogen call (Species: MOUSE, Strain/Sex: B6C3F1/MALE, Route: ORAL, Dose: 0, 1.25, 2.5% IN DRINKING WATER FOR 96 WK (STUDY DURATION: 110 WK), Dose: 0, 1.25, 2.5% IN DRINKING WATER FOR 96 WK (STUDY DURATION: 110 WK)): inactive; negative
carcinogen call (Species: RAT, Strain/Sex: F344/FEMALE, Route: ORAL, Dose: 0, 1.25%, 2.5% IN TAP DRINKING WATER FOR 104 WK (STUDY DURATION: LIFESPAN), Dose: 0, 1.25%, 2.5% IN TAP DRINKING WATER FOR 104 WK (STUDY DURATION: LIFESPAN)): inactive; negative
carcinogen call (Species: RAT, Strain/Sex: F344/MALE, Route: ORAL, Dose: 0, 1.25%, 2.5% IN TAP DRINKING WATER FOR 104 WK (STUDY DURATION: LIFESPAN), Dose: 0, 1.25%, 2.5% IN TAP DRINKING WATER FOR 104 WK (STUDY DURATION: LIFESPAN)): inactive; negative

O=[N+]([O-])c1ccc(O)cc1
carcinogen call (Species: MOUSE, Strain/Sex: SWISS/FEMALE, Route: DERMAL, Dose: 0, 40, 80, 160 MG/KG IN ACETONE 3 D/WK FOR 78 WK (STUDY DURATION: 18 MO), Dose: 0, 40, 80, 160 MG/KG IN ACETONE 3 D/WK FOR 78 WK (STUDY DURATION: 18 MO)): inactive; negative
carcinogen call (Species: MOUSE, Strain/Sex: SWISS/MALE, Route: DERMAL, Dose: 0, 40, 80, 160 MG/KG IN ACETONE 3 D/WK FOR 78 WK (STUDY DURATION: 18 MO), Dose: 0, 40, 80, 160 MG/KG IN ACETONE 3 D/WK FOR 78 WK (STUDY DURATION: 18 MO)): inactive; negative

CCSCC[C@H](N)C(=O)O
carcinogen call (Species: RAT, Strain/Sex: SPRAGUE-DAWLEY/MALE,FEMALE, Route: ORAL, Dose: 0.25% IN DIET FOR 38 WK (AVE), Tumor Site: Type of Lesion: LIVER: CARCINOMA): active; positive
carcinogen call (Species: RAT, Strain/Sex: SPRAGUE-DAWLEY/MALE, Route: ORAL, Dose: 0, 0.05% IN CHOLINE-FREE DIET FOR 12 MO (STUDY DURATION: 12 MO), Tumor Site: Type of Lesion: LIVER: HEPATOCELLULAR CARCINOMA): active; positive
carcinogen call (Species: RAT, Strain/Sex: SPRAGUE-DAWLEY/MALE, Route: ORAL, Dose: 0, 0.1% IN CHOLINE-FREE DIET FOR 12 MO (STUDY DURATION: 12 MO)): inactive; negative
carcinogen call (Species: RAT, Strain/Sex: STRAIN-CD/MALE, Route: ORAL, Dose: 0.2% IN NONTOXIC PEANUT MEAL DIET FOR 380 D, Tumor Site: Type of Lesion: LIVER): active; positive

C=Cc1ccccn1
carcinogen call (Species: MOUSE, Strain/Sex: STRAIN-A/FEMALE, Route: INTRAPERITONEAL, Dose: 0, 10 UMOL IN 0.1 ML OLIVE OIL 3/WK FOR 20 DOSES (TOTAL DOSE: 200 UMOL) (STUDY DURATION: 27 WK)): inactive; negative

O=C(O)C(Br)Br
carcinogen call (Species: Mouse, Strain/Sex: B6C3F1/Female, Route: Oral, Dose: 0, 50, 500, 1,000 mg/l in drinking water for 2 yr, Dose: 0, 50, 500, 1,000 mg/l in drinking water for 2 yr, Tumor Site: Type of Lesion: Liver: Hepatocellular adenoma (19/49; 26/50; 32/50; 35/49), Hepatocellular carcinoma (3/49, 3/50, 12/50, 8/49), Hepatoce, Tumor Site: Type of Lesion: Liver: Hepatocellular adenoma (19/49; 26/50; 32/50; 35/49), Hepatocellular carcinoma (3/49, 3/50, 12/50, 8/49), Hepatoce): active; positive (ntp reports as clear evidence)
carcinogen call (Species: Mouse, Strain/Sex: B6C3F1/Male, Route: Oral, Dose: 0, 50, 500, 1,000 mg/l in drinking water for 2 yr, Dose: 0, 50, 500, 1,000 mg/l in drinking water for 2 yr, Tumor Site: Type of Lesion: Liver: Hepatocellular adenoma (18/49; 37/50; 42/50), Hepatocellular carcinoma (14/49, 9/50, 19/50, 26/50), Hepato, Tumor Site: Type of Lesion: Liver: Hepatocellular adenoma (18/49; 37/50; 42/50), Hepatocellular carcinoma (14/49, 9/50, 19/50, 26/50), Hepato): active; positive (ntp reports as clear evidence)
carcinogen call (Species: Rat, Strain/Sex: F344/N/Female, Route: Oral, Dose: 0, 50, 500, 1000 mg/l in drinking water for 2 yr, Dose: 0, 50, 500, 1000 mg/l in drinking water for 2 yr, Tumor Site: Type of Lesion: All organs: Mononuclear cell leukemia (11/50, 13/50, 16/50, 22/50)): active; positive trend (not statistically significant) (ntp reports as some evidence)
carcinogen call (Species: Rat, Strain/Sex: F344/N/Male, Route: Oral, Dose: 0, 50, 500, 1000 mg/l in drinking water continuous for 2 yr, Dose: 0, 50, 500, 1000 mg/l in drinking water continuous for 2 yr, Tumor Site: Type of Lesion: All organs: Malignant mesothelioma (3/50, 1/50, 0/50, 10/50), Mononuclear cell leukemia (17/50, 31/50, 24/50, 13/50)): active; positive (malignant mesothelioma) (ntp reports as some evidence); mononuclear ce

CCN(CC)C(=O)/C(Cl)=C(\C)OP(=O)(OC)OC
carcinogen call (Species: MOUSE, Strain/Sex: B6C3F1/FEMALE, Route: ORAL, Dose: 0, 80, 160 PPM IN DIET, Dose: 0, 80, 160 PPM IN DIET): inactive; negative
carcinogen call (Species: MOUSE, Strain/Sex: B6C3F1/MALE, Route: ORAL, Dose: 0, 80, 160 PPM IN DIET, Dose: 0, 80, 160 PPM IN DIET): inactive; negative
carcinogen call (Species: RAT, Strain/Sex: OSBORNE-MENDEL/FEMALE, Route: ORAL, Dose: 0, 80, 160 PPM IN DIET FOR 80 WK (STUDY DURATION: 111 WK), Dose: 0, 80, 160 PPM IN DIET FOR 80 WK (STUDY DURATION: 111 WK), Tumor Site: Type of Lesion: THYROID GLAND: C-CELL ADENOMA OR CARCINOMA): equivocal
carcinogen call (Species: RAT, Strain/Sex: OSBORNE-MENDEL/MALE, Route: ORAL, Dose: 0, 80, 160 PPM IN DIET FOR 80 WK (STUDY DURATION: 111 WK), Dose: 0, 80, 160 PPM IN DIET FOR 80 WK (STUDY DURATION: 111 WK), Tumor Site: Type of Lesion: SPLEEN: HEMANGIOMA OR HEMANGIOSARCOMA): equivocal
